Results: publication PMC9592910, “Tissue distribution and integrated pharmacokinetic properties of major effective constituents of oral Gegen-Qinlian decoction in mice” (Frontiers in Pharmacology, 2022)
Marks after values point to notes of the source that are not given here.

How the values were obtained:
[1] = system: dextran sodium sulfate-induced ulcerative colitis model mice; design: method as in Dong et al., 2022; conditions: oral 40 mg/kg for 7 days, DSS-induced ulcerative colitis model mice; ref Dong et al., 2022; cited from earlier work
[2] = Pharmacokinetics of GQD constituents in the portal vein of mice after oral GQD; type: in vivo, Kunming mice; conditions: both, Kunming, mouse; for AUC(0-t): read-out: AUC0–24 h
Description: (§1) Fifty-four Kunming mice were randomly divided into nine groups according to body weight and gender (3 male and three female in each group). Each group was orally administered with water solution (0.2 ml/10 g body weight) of the GQD extract powder at the dosage of 6.1 g/kg body weight. The dosage of GQD extract powder equals to 18 g/kg herbal pieces of GQD, which is equivalent to its clinical dosage. At each designed time point (0.08, 0.25, 0.5, 1, 2, 4, 8, 12, and 24 h) after oral administration, six mice were anesthetized with ether, and blood was collected from the portal vein (about 0.2 ml, aspirated in a 1 ml heparinized syringe) and then the systemic circulation (about 0.2 ml, collected in heparinized tubes after removal of the eyeball) of the mice to prepare plasma samples, and the livers and the colons were removed to prepare respective homogenate. After pretreatment, the concentrations of 19 major constituents of GQD in each sample were measured by the validated LC-MS/MS method (see “2.3”). Then the C-T curves of the constituents in the plasma and the tissue homogenates were respectively drawn and their pharmacokinetic parameters were respectively calculated.
(§2) It should be noted that the pharmacokinetic parameters of a GQD constituent was calculated based on its average concentration in six mice at each time point. The results were expressed as mean ± SD.

[3] = Pharmacokinetics/tissue distribution of GQD constituents in the colons of mice after oral GQD; type: in vivo, Kunming mice; conditions: for half-life / Cmax / MRT / Tmax: both, Kunming, mouse
Description: (§3) The liver and the colon homogenates were prepared with 10 times (V: W) the volume of ascorbic acid solution (200 μg/ml). Then the homogenates were pretreated as plasma to obtain the tissue samples for LC-MS/MS analysis. Fifty-four Kunming mice were randomly divided into nine groups according to body weight and gender (3 male and three female in each group). […] Then the C-T curves of the constituents in the plasma and the tissue homogenates were respectively drawn and their pharmacokinetic parameters were respectively calculated. […] It should be noted that the pharmacokinetic parameters of a GQD constituent was calculated based on its average concentration in six mice at each time point. The results were expressed as mean ± SD.

[4] = Pharmacokinetics/tissue distribution of GQD constituents in the livers of mice after oral GQD; type: in vivo, Kunming mice; conditions: for Kp: both sexes
Description: as §3

[5] = design: method as in Zhai et al., 2020; conditions: at 10 μM; ref Zhai et al., 2020; cited from earlier work
[6] = Pharmacokinetics of GQD constituents in the systemic circulation of mice after oral GQD; type: in vivo, Kunming mice; conditions: for half-life / Tmax / Cmax / MRT / AUC(0-t): both, Kunming, mouse; for half-life / Tmax: po; for Cmax / MRT / AUC(0-t): oral GQD 6.1 g/kg; for AUC(0-t): read-out: AUC0–24 h
Description: as §1, §2

[7] = system: rats with irritable bowel syndrome; design: method as in Wang et al., 2021; conditions: oral 6–24 mg/kg, ref Wang et al., 2021; cited from earlier work
[8] = system: dextran sodium sulfate-induced colitis; design: method as in Jeon et al., 2020; conditions: oral 10 or 50 mg/kg; ref Jeon et al., 2020; cited from earlier work
[9] = portal vein plasma, po, […], portal vein plasma, mice, oral GQD extract […], read-out: Tmax
[10] = portal vein plasma, mice, oral GQD extract 6.1 g/kg
[11] = portal vein plasma, mice, oral GQD extract 6.1 g/kg, read-out: T1/2 (converted)
[12] = colon (homogenate), po, […], colon, mice, oral GQD extract […], read-out: T1/2 (converted)
[13] = colon (homogenate), colon, mice, oral GQD extract 6.1 g/kg
[14] = colon (homogenate), colon, mice, oral GQD extract 6.1 g/kg, read-out: Tmax
[15] = both, Kunming, mouse, liver (homogenate), po, […], liver, mice, oral GQD extract […], read-out: T1/2 (converted)
[16] = both, Kunming, mouse, liver (homogenate), liver, mice, oral GQD extract 6.1 g/kg
[17] = both, Kunming, mouse, liver (homogenate), liver, mice, oral GQD extract 6.1 g/kg, read-out: Tmax
[18] = liver, mice, oral GQD extract […]
[19] = systemic circulation plasma, systemic circulation plasma, mice, oral GQD […], read-out: T1/2 (converted)
[20] = systemic circulation plasma, systemic circulation plasma, mice, oral GQD […], read-out: Tmax
[21] = systemic circulation plasma, mice
[22] = colon, mice, oral GQD extract […]

| SMILES | Tmax [2, 9] | Cmax [2, 10] | MRT [2, 10] | AUC(0-t) [2, 10] | half-life [2, 11] | half-life [3, 12] | Cmax [3, 13] | MRT [3, 13] | Tmax [3, 14] | half-life [4, 15] | Cmax [4, 16] | MRT [4, 16] | Tmax [4, 17] | T1/2 [4, 18] | half-life [6, 19] | Tmax [6, 20] | Cmax [6, 21] | MRT [6, 21] | AUC(0-t) [6, 21] | T1/2 [3, 22] | further results |
| --- | --- | --- | --- | --- | --- | --- | --- | --- | --- | --- | --- | --- | --- | --- | --- | --- | --- | --- | --- | --- | --- |
| COc1ccc2cc3[n+](cc2c1OC)CCc1cc2c(cc1-3)OCO2 [Berberine, berberine] | 4 h | 0.191 µg/mL | 5.5 h | 1.42 µg·h/mL | 8 h | 3.5 h | 6230 ng/g | 6 h | 4 h | ~10 h | 427 ng/g | 8.3 h | 4 h | 10.1# h | ~6 h | 1 h | 0.0854 µg/mL | 5.4 h | 0.419 µg·h/mL |  | effect on intestinal mucosal barrier function and inflammatory reaction [1]: significantly improved intestinal mucosal barrier function; anti-inflammatory effect [5]: significant anti-inflammatory effect; T1/2 ([6]; systemic circulation plasma, mice, oral GQD […]): 5.3 h |
| O=C1C[C@@H](c2ccc(O[C@@H]3O[C@H](CO)[C@@H](O)[C@H](O)[C@H]3O)cc2)Oc2cc(O)ccc21 [Liquiritin, liquiritin] |  |  |  |  |  |  |  |  |  |  |  |  |  |  |  |  |  |  |  |  | half-life ([2]; in vivo, po, […]): 2.5 h; Tmax ([2]; in vivo, po, […], Tmax): 0.25 h; Tmax ([3]; in vivo, po, […]): 0.5 h; half-life ([3]; in vivo, po, […], T1/2): 19.5 h; Kp ([4]; Kunming, mouse, in vivo, po, AUC0–24 h liv/AUC0–24 h cir): ~5; Kp ([4]; Kunming, mouse, in vivo, po, AUC0–24 h liv/AUC0–24 h por): 2.4; AUC0–24 h liv/AUC0–24 h cir ([4]; both, Kunming, mouse, in vivo, po): 5.1; Tmax ([4]; both, Kunming, mouse, in vivo, po, […]): 4 h; half-life ([4]; both, Kunming, mouse, in vivo, po, […], T1/2): 19.7 h; half-life ([6]; in vivo, T1/2): 1.5 h; Tmax ([6]; in vivo, Tmax): 0.25 h |
| COc1cc2c(cc1O)CC[n+]1cc3c(OC)c(OC)ccc3cc1-2 [Jatrorrhizine, jatrorrhizine] | 4 h | 0.0166 µg/mL | 4.8 h | 0.116 µg·h/mL | 6.3 h | 5 h | 2100 ng/g | 6.2 h | 4 h | 2.4 h | 136 ng/g | 6.6 h | 4 h |  | 4.3 h | 0.08 h | 0.0101 µg/mL | 3.9 h | 0.0263 µg·h/mL |  |  |
| O=c1cc(-c2ccccc2)oc2cc(O)c(O)c(O)c12 [Baicalein, baicalein] | 2 h | 0.381 µg/mL | 3.8 h | 1.76 µg·h/mL | 1.3 h | 2 to 3 h | 1920 ng/g | 5.8 h | 4 h | 2 to 3 h | 9020 ng/g | 4.3 h | 4 h | 2.3 h | 6.3 h | 4 h | 0.0267 µg/mL | 6.8 h | 0.229 µg·h/mL | 2.6 h |  |
| O=c1c(-c2ccc(O)cc2)coc2c([C@@H]3O[C@H](CO)[C@@H](O)[C@H](O)[C@H]3O)c(O)ccc12 [Puerarin, puerarin] | 0.25 to 0.5 h | 1.99 µg/mL | 3.2 h | 6.71 µg·h/mL | 2.9 h | 1 to 4 h | 61600 ng/g | 5.9 h | 4 h | 3 to 4 h | 2870 ng/g | 3.8 h | 0.5 h | 4.0 h | 3.4 h | 0.25 to 0.5 h | 1.58 µg/mL | 3.3 h | 5.23 µg·h/mL | 1.3 h | effect on irritable bowel syndrome symptoms [7]: improved symptoms of rats with irritable bowel syndrome; effect on dextran sodium sulfate-induced colitis [8]: alleviated dextran sodium sulfate-induced colitis |
